≈ marks a conversion by molar mass, not a printed value.
Legend:
M. abscessus ATCC 19977 = assay: MIC assay in 96-well plate format, wild-type strain; type: cell-based, Mycobacterium abscessus; conditions: for MICWT: Table 10; for MIC: Table 15, heterocyclic aromatic carbamates, read-out: WT Mab MIC
Method: (§1) MIC determination was carried out in 96-well plate format as previously described.^[13-14] 96-well plates were initially set up with 100 μL of 7H9 per well. For each compound, a ten-point two-fold dilution series starting at twice the desired highest concentration was dispensed onto the 96-well plates using a Tecan D300e Digital Dispenser, with the DMSO concentration normalized to 2%. M. abscessus culture grown to mid-log phase (OD600=0.4-0.6) was diluted to OD600=0.1 (1×10^7 CFU/mL). […] Untreated control wells are included on each plate that contain bacteria suspension and 1% DMSO. Plates were sealed with parafilm, stored in boxes with wet paper towels and incubated at 37° C. with shaking (110 RPM). Plates were incubated for 3 days. To determine growth, OD600 was measured using a Tecan Infinite M200 plate reader on Day 0 and Day 3. Two biological replicates were performed. Clarithromycin was included in each experiment as a positive control.
(§2) For each well on the 96-well plate, bacterial growth was calculated by subtracting the Day 0 OD600 value from the Day 3 OD600 value. […] For compound-containing wells, percentage growth was calculated by dividing their growth values by the average drug-free bacterial growth for the compound series and multiplying by 100. For each compound series, we plotted percentage growth versus compound concentration.

Δarr M. abscessus = assay: MIC assay, isogenic arr-deleted strain; type: cell-based, Mycobacterium abscessus; conditions: Table 10
Method: as §1, §2

[1] = Plasma protein binding assay (rapid equilibrium dialysis); type: in vitro ADME
Method: DMSO stocks were spiked into plasma to a concentration of 10,000 ng/mL. 200 μL of spiked plasma was pipetted into the sample chamber of the rapid equilibrium dialysis (RED) cartridge. 350 μL of PBS was added to the adjacent cartridge. The plate containing the RED was sealed and incubated at 37° C. on the thermomixer at 300 RPM for 4 h. After incubation, 50 μL aliquots of plasma were removed and added to 50 μL of blank plasma in a deep well plate (1:1). Similarly, 50 μL aliquots of PBS were removed and added to 50 μL of blank plasma. This created an identical matrix between buffer and non-buffer samples. Samples were processed and quantified as specified in the LC-MS/MS analytical method.

| Structure (SMILES) | MICWT (M. abscessus ATCC 19977) [µM] | MICΔorr (Δarr M. abscessus) [µM] | plasma unbound fraction ([1]; Table 10) [%] | MIC (M. abscessus ATCC 19977) [µM] | ƒu [1] [%] | plasma unbound fraction ([1]; plasma) [%] |
| --- | --- | --- | --- | --- | --- | --- |
| CO[C@H]1/C=C/O[C@@]2(C)Oc3c(C)c(O)c4c(c3C2=O)C2=NC3(CCN(CC(C)C)CC3)NC2=C(NC(=O)/C(C)=C/C=C/[C@H](C)[C@H](O)[C@@H](C)[C@@H](O)[C@@H](C)[C@H](OC(=O)c2ccccc2F)[C@@H]1C)C4=O [UMN23] | 0.06 | 0.058 | 0.05 | – | – | – |
| CO[C@H]1/C=C/O[C@@]2(C)Oc3c(C)c(O)c4c(c3C2=O)C2=NC3(CCN(CC(C)C)CC3)NC2=C(NC(=O)/C(C)=C/C=C/[C@H](C)[C@H](O)[C@@H](C)[C@@H](O)[C@@H](C)[C@H](OC(=O)c2ccccc2Cl)[C@@H]1C)C4=O [UMN24] | 0.043 | 0.049 | 0.06 | – | – | – |
| COc1ccccc1C(=O)O[C@H]1[C@H](C)[C@H](O)[C@H](C)[C@@H](O)[C@@H](C)/C=C/C=C(\C)C(=O)NC2=C3NC4(CCN(CC(C)C)CC4)N=C3c3c(c(O)c(C)c4c3C(=O)[C@@](C)(O/C=C/[C@H](OC)[C@H]1C)O4)C2=O [UMN29] | 0.03 | 0.03 | 0.22 | – | – | – |
| CO[C@H]1/C=C/O[C@@]2(C)Oc3c(C)c(O)c4c(c3C2=O)C2=NC3(CCN(CC(C)C)CC3)NC2=C(NC(=O)/C(C)=C/C=C/[C@H](C)[C@H](O)[C@@H](C)[C@@H](O)[C@@H](C)[C@H](OC(=O)Nc2cccc(C)c2)[C@@H]1C)C4=O [UMN35] | 0.034 | 0.036 | 0.05 | – | – | – |
| CO[C@H]1/C=C/O[C@@]2(C)Oc3c(C)c(O)c4c(c3C2=O)C2=NC3(CCN(CC(C)C)CC3)NC2=C(NC(=O)/C(C)=C/C=C/[C@H](C)[C@H](O)[C@@H](C)[C@@H](O)[C@@H](C)[C@H](OC(=O)Nc2ccccc2-c2ccccc2)[C@@H]1C)C4=O [UMN36] | 0.035 | 0.05 | – | 0.035 (≈ 0.035 µg/mL) | 0.02 | 0.02 |
| COc1ccc(NC(=O)O[C@H]2[C@H](C)[C@H](O)[C@H](C)[C@@H](O)[C@@H](C)/C=C/C=C(\C)C(=O)NC3=C4NC5(CCN(CC(C)C)CC5)N=C4c4c(c(O)c(C)c5c4C(=O)[C@@](C)(O/C=C/[C@H](OC)[C@H]2C)O5)C3=O)cc1 [UMN37] | 0.031 | 0.034 | 0.15 | – | – | – |
| CO[C@H]1/C=C/O[C@@]2(C)Oc3c(C)c(O)c4c(c3C2=O)C2=NC3(CCN(CC(C)C)CC3)NC2=C(NC(=O)/C(C)=C/C=C/[C@H](C)[C@H](O)[C@@H](C)[C@@H](O)[C@@H](C)[C@H](OC(=O)Nc2ccccc2C)[C@@H]1C)C4=O [UMN39] | 0.014 | 0.017 | – | 0.014 (≈ 0.0131 µg/mL) | 0.1 | 0.13 |
| CO[C@H]1/C=C/O[C@@]2(C)Oc3c(C)c(O)c4c(c3C2=O)C2=NC3(CCN(CC(C)C)CC3)NC2=C(NC(=O)/C(C)=C/C=C/[C@H](C)[C@H](O)[C@@H](C)[C@@H](O)[C@@H](C)[C@H](OC(=O)NCc2cc(-c3ccccc3)no2)[C@@H]1C)C4=O [UMN40] | 0.035 | 0.03 | 0.12 | – | – | – |
| COc1cccc(NC(=O)O[C@H]2[C@H](C)[C@H](O)[C@H](C)[C@@H](O)[C@@H](C)/C=C/C=C(\C)C(=O)NC3=C4NC5(CCN(CC(C)C)CC5)N=C4c4c(c(O)c(C)c5c4C(=O)[C@@](C)(O/C=C/[C@H](OC)[C@H]2C)O5)C3=O)c1 [UMN42] | 0.025 | 0.03 | 0.09 | – | – | – |
| CO[C@H]1/C=C/O[C@@]2(C)Oc3c(C)c(O)c4c(c3C2=O)C2=NC3(CCN(CC(C)C)CC3)NC2=C(NC(=O)/C(C)=C/C=C/[C@H](C)[C@H](O)[C@@H](C)[C@@H](O)[C@@H](C)[C@H](OC(=O)Nc2ccc(C)cc2)[C@@H]1C)C4=O [UMN43] | 0.05 | 0.03 | 0.05 | – | – | – |
| CO[C@H]1/C=C/O[C@@]2(C)Oc3c(C)c(O)c4c(c3C2=O)C2=NC3(CCN(CC(C)C)CC3)NC2=C(NC(=O)/C(C)=C/C=C/[C@H](C)[C@H](O)[C@@H](C)[C@@H](O)[C@@H](C)[C@H](OC(=O)c2nccs2)[C@@H]1C)C4=O [UMN45] | 0.017 | 0.017 | 1.89 | – | – | – |
| CO[C@H]1/C=C/O[C@@]2(C)Oc3c(C)c(O)c4c(c3C2=O)C2=NC3(CCN(CC(C)C)CC3)NC2=C(NC(=O)/C(C)=C/C=C/[C@H](C)[C@H](O)[C@@H](C)[C@@H](O)[C@@H](C)[C@H](OC(=O)N2CCN(CC(C)C)CC2)[C@@H]1C)C4=O [UMN53] | 0.027 | 0.02 | 0.20 | – | – | – |
| CO[C@H]1/C=C/O[C@@]2(C)Oc3c(C)c(O)c4c(c3C2=O)C2=NC3(CCN(CC(C)C)CC3)NC2=C(NC(=O)/C(C)=C/C=C/[C@H](C)[C@H](O)[C@@H](C)[C@@H](O)[C@@H](C)[C@H](OC(=O)Nc2ccncn2)[C@@H]1C)C4=O [UMN56] | 0.048 | 0.05 | 5.50 | – | – | – |
| CO[C@H]1/C=C/O[C@@]2(C)Oc3c(C)c(O)c4c(c3C2=O)C2=NC3(CCN(CC(C)C)CC3)NC2=C(NC(=O)/C(C)=C/C=C/[C@H](C)[C@H](O)[C@@H](C)[C@@H](O)[C@@H](C)[C@H](OC(=O)N2CCN(c3ccccc3)CC2)[C@@H]1C)C4=O [UMN58] | 0.09 | 0.049 | 0.13 | – | – | – |
| CO[C@H]1/C=C/O[C@@]2(C)Oc3c(C)c(O)c4c(c3C2=O)C2=NC3(CCN(CC(C)C)CC3)NC2=C(NC(=O)/C(C)=C/C=C/[C@H](C)[C@H](O)[C@@H](C)[C@@H](O)[C@@H](C)[C@H](OC(=O)N2CCCC2(C)C)[C@@H]1C)C4=O [UMN61] | 0.08 | 0.052 | 0.17 | – | – | – |
| CO[C@H]1/C=C/O[C@@]2(C)Oc3c(C)c(O)c4c(c3C2=O)C2=NC3(CCN(CC(C)C)CC3)NC2=C(NC(=O)/C(C)=C/C=C/[C@H](C)[C@H](O)[C@@H](C)[C@@H](O)[C@@H](C)[C@H](OC(=O)N2CCN(C(C)(C)C)CC2)[C@@H]1C)C4=O [UMN63] | 0.077 | 0.043 | 3.60 | – | – | – |
| CO[C@H]1/C=C/O[C@@]2(C)Oc3c(C)c(O)c4c(c3C2=O)C2=NC3(CCN(CC(C)C)CC3)NC2=C(NC(=O)/C(C)=C/C=C/[C@H](C)[C@H](O)[C@@H](C)[C@@H](O)[C@@H](C)[C@H](OC(=O)N2CCNCC2)[C@@H]1C)C4=O [UMN86] | 0.11 | 0.10 | – | – | – | – |
| CO[C@H]1/C=C/O[C@@]2(C)Oc3c(C)c(O)c4c(c3C2=O)C2=NC3(CCN(CC(C)C)CC3)NC2=C(NC(=O)/C(C)=C/C=C/[C@H](C)[C@H](O)[C@@H](C)[C@@H](O)[C@@H](C)[C@H](OC(=O)NC2CC(C)(C)N(Cc3ccccc3)C(C)(C)C2)[C@@H]1C)C4=O [UMN87] | 0.23 | 0.30 | – | – | – | – |
| CO[C@H]1/C=C/O[C@@]2(C)Oc3c(C)c(O)c4c(c3C2=O)C2=NC3(CCN(CC(C)C)CC3)NC2=C(NC(=O)/C(C)=C/C=C/[C@H](C)[C@H](O)[C@@H](C)[C@@H](O)[C@@H](C)[C@H](OC(=O)NC2CC(C)(C)N(C)C(C)(C)C2)[C@@H]1C)C4=O [UMN91] | 0.11 | 0.10 | – | – | – | – |
